Assay [1] has as its target Ubiquitin carboxyl-terminal hydrolase 7 (Homo sapiens, UniProt Q93009). In words: Inhibition of His6-tagged USP7 (208 to 1102 residues) (unknown origin) using ubiquitin-rhodamine110 as substrate preincubated for 30 mins followed by substrate addition measured after 20 mins by fluorescence assay.
Assay [2] has as its target Potassium voltage-gated channel subfamily A member 5 (Homo sapiens) (UniProt P22460). In words: Inhibition of human Kv1.5 expressed in mouse L929 cells assessed as reduction in channel current at 0.3 uM by patch clamp method relative to control. The class given is cell-based. For orientation: The patch-clamp technique gives a direct electrical read-out from membranes.

A value given as a limit tells only on which side of the number the result lay.

As usually defined, the IC50 is the midpoint of a concentration-inhibition curve. By inhibition is commonly meant the change of the read-out against control, counted positive when it falls.

Ubiquitin carboxyl-terminal hydrolase 7, sequence (Q93009 whole entry, the tested form may be a part): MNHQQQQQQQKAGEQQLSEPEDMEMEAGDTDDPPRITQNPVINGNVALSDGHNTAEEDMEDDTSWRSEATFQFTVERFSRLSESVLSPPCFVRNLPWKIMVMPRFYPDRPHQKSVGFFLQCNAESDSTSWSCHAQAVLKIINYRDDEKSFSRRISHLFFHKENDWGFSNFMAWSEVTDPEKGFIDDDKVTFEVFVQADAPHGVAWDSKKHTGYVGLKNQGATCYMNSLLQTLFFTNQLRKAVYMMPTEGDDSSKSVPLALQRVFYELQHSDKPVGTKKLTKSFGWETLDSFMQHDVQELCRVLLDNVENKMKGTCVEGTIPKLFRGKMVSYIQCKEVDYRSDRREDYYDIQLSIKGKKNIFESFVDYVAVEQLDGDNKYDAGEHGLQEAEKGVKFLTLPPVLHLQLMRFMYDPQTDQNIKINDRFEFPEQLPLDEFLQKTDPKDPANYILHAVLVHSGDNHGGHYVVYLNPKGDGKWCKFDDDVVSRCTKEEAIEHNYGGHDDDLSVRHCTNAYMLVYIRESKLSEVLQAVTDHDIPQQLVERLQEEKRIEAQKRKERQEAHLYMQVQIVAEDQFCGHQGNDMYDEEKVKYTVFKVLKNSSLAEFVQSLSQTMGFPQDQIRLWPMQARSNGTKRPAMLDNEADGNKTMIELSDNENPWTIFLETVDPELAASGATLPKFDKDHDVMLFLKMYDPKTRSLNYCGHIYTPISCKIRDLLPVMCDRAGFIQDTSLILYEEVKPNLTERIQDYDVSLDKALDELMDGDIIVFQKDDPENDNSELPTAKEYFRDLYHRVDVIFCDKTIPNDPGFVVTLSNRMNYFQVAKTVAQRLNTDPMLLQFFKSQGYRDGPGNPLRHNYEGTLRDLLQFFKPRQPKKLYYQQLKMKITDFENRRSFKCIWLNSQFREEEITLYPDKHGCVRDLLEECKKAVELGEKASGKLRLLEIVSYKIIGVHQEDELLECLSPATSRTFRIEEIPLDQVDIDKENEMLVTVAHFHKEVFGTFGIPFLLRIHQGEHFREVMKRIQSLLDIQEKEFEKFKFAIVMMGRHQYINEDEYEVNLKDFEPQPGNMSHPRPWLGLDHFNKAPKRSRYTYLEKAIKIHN
Potassium voltage-gated channel subfamily A member 5 (Homo sapiens), sequence (P22460 whole entry): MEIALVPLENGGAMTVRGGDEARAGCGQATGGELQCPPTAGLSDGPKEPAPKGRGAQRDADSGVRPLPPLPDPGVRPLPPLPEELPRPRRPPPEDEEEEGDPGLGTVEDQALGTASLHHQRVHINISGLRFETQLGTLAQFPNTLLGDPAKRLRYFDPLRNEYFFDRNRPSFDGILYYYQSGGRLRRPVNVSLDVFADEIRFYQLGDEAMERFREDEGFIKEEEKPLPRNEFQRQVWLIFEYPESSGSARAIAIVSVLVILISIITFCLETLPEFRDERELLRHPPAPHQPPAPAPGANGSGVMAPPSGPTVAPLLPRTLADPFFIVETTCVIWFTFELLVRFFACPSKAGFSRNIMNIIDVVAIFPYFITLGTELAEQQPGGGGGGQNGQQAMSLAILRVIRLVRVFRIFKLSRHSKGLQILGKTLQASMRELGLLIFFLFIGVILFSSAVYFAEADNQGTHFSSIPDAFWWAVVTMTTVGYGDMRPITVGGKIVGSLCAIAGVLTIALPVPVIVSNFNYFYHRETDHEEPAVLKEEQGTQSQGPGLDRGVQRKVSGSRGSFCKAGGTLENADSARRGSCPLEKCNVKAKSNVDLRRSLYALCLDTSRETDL

As to `C[C@H](CC(=O)N1CCC(O)(Cn2cnn3cccc3c2=O)CC1)c1ccccc1`, in assay [1], the IC50 was < 200 nM. Take `NS(=O)(=O)c1cncc(-c2nc(NCc3ccccc3)c3c(-c4ccccc4)ccn3n2)c1`: in assay [2], the inhibition is > 95%.

The record behind these values is ChEMBL document CHEMBL4177564, “Pyrrolo[2,1-f][1,2,4]triazines: From C-nucleosides to kinases and back again, the remarkable journey of a versatile nitrogen heterocycle” (Bioorg Med Chem Lett, 2017).
